Source: PubChem BioAssay (NCI)
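1) Cells in 96-well plates. 2) Compound, 48 h, 5 concentrations. 3) Linear interpolation between surrounding doses. 4) Unreached endpoint = highest concentration. TGI denotes the concentration required for complete inhibition of growth.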

What was measured:
Experiment in all cases: NCI tumour cell line growth inhibition, 48 h
786-0 renal = test system: 786-0 renal
A498 renal = test system: A498 renal
A549 NSCLC = test system: A549 NSCLC
ACHN renal = test system: ACHN renal
CAKI-1 renal = test system: CAKI-1 renal
CCRF-CEM leukemia = test system: CCRF-CEM leukemia
COLO 205 colon = test system: COLO 205 colon
DLD-1 colon = test system: DLD-1 colon
DMS 114 small cell lung = test system: DMS 114 small cell lung
DMS 273 small cell lung = test system: DMS 273 small cell lung
HCC-2998 colon = test system: HCC-2998 colon
HCT-116 colon = test system: HCT-116 colon
HCT-15 colon = test system: HCT-15 colon
HL-60(TB) leukemia = test system: HL-60(TB) leukemia
HOP-18 NSCLC = test system: HOP-18 NSCLC
HOP-62 NSCLC = test system: HOP-62 NSCLC
HOP-92 NSCLC = test system: HOP-92 NSCLC
HT29 colon = test system: HT29 colon
IGROV1 ovarian = test system: IGROV1 ovarian
K-562 leukemia = test system: K-562 leukemia
KM12 colon = test system: KM12 colon
LOX IMVI melanoma = test system: LOX IMVI melanoma
LXFL 529 NSCLC = test system: LXFL 529 NSCLC
M14 melanoma = test system: M14 melanoma
M19-MEL melanoma = test system: M19-MEL melanoma
MALME-3M melanoma = test system: MALME-3M melanoma
MOLT-4 leukemia = test system: MOLT-4 leukemia
NCI-H226 lung = test system: NCI-H226 lung
NCI-H23 lung = test system: NCI-H23 lung
NCI-H460 lung = test system: NCI-H460 lung
NCI-H522 lung = test system: NCI-H522 lung
OVCAR-3 ovarian = test system: OVCAR-3 ovarian
OVCAR-4 ovarian = test system: OVCAR-4 ovarian
OVCAR-5 ovarian = test system: OVCAR-5 ovarian
OVCAR-8 ovarian = test system: OVCAR-8 ovarian
RXF 393 renal = test system: RXF 393 renal
RXF-631 renal = test system: RXF-631 renal
SF-268 CNS = test system: SF-268 CNS
SF-295 CNS = test system: SF-295 CNS
SF-539 CNS = test system: SF-539 CNS
SK-MEL-2 melanoma = test system: SK-MEL-2 melanoma
SK-MEL-28 melanoma = test system: SK-MEL-28 melanoma
SK-MEL-5 melanoma = test system: SK-MEL-5 melanoma
SK-OV-3 ovarian = test system: SK-OV-3 ovarian
SN12C renal = test system: SN12C renal
SNB-19 CNS = test system: SNB-19 CNS
SNB-75 CNS = test system: SNB-75 CNS
SNB-78 CNS = test system: SNB-78 CNS
SR leukemia = test system: SR leukemia
SW-620 colon = test system: SW-620 colon
TK-10 renal = test system: TK-10 renal
U251 CNS = test system: U251 CNS
UACC-257 melanoma = test system: UACC-257 melanoma
UO-31 renal = test system: UO-31 renal
XF 498 CNS = test system: XF 498 CNS
EKVX NSCLC = test system: EKVX NSCLC
KM20L2 colon = test system: KM20L2 colon
UACC-62 melanoma = test system: UACC-62 melanoma
BT-549 breast = test system: BT-549 breast
DU-145 prostate = test system: DU-145 prostate
HS 578T breast = test system: HS 578T breast
MCF7 breast = test system: MCF7 breast
MDA-MB-231 breast = test system: MDA-MB-231 breast
MDA-MB-435 = test system: MDA-MB-435
MDA-N = test system: MDA-N
NCI/ADR-RES ovarian = test system: NCI/ADR-RES ovarian
PC-3 prostate = test system: PC-3 prostate
RPMI-8226 leukemia = test system: RPMI-8226 leukemia
T-47D breast = test system: T-47D breast

## Cc1ccccc1NC(=O)C(=O)Cc1nc2ccccc2s1
786-0 renal
  TGI: > 100 µM
A498 renal
  TGI: > 100 µM
A549 NSCLC
  TGI: > 100 µM
ACHN renal
  TGI: > 100 µM
CAKI-1 renal
  TGI: > 100 µM
CCRF-CEM leukemia
  TGI: > 100 µM
COLO 205 colon
  TGI: > 100 µM
DLD-1 colon
  TGI: > 100 µM
DMS 114 small cell lung
  TGI: > 100 µM
DMS 273 small cell lung
  TGI: > 100 µM
HCC-2998 colon
  TGI: > 100 µM
HCT-116 colon
  TGI: > 100 µM
HCT-15 colon
  TGI: > 100 µM
HL-60(TB) leukemia
  TGI: > 100 µM
HOP-18 NSCLC
  TGI: > 100 µM
HOP-62 NSCLC
  TGI: > 100 µM
HOP-92 NSCLC
  TGI: > 100 µM
HT29 colon
  TGI: > 100 µM
IGROV1 ovarian
  TGI: > 100 µM
K-562 leukemia
  TGI: > 100 µM
KM12 colon
  TGI: > 100 µM
LOX IMVI melanoma
  TGI: > 100 µM
LXFL 529 NSCLC
  TGI: > 100 µM
M14 melanoma
  TGI: > 100 µM
M19-MEL melanoma
  TGI: > 100 µM
MALME-3M melanoma
  TGI: > 100 µM
MOLT-4 leukemia
  TGI: > 100 µM
NCI-H226 lung
  TGI: > 100 µM
NCI-H23 lung
  TGI: > 100 µM
NCI-H460 lung
  TGI: > 100 µM
NCI-H522 lung
  TGI: > 100 µM
OVCAR-3 ovarian
  TGI: > 100 µM
OVCAR-4 ovarian
  TGI: > 100 µM
OVCAR-5 ovarian
  TGI: > 100 µM
OVCAR-8 ovarian
  TGI: > 100 µM
RXF 393 renal
  TGI: > 100 µM
RXF-631 renal
  TGI: > 100 µM
SF-268 CNS
  TGI: > 100 µM
SF-295 CNS
  TGI: > 100 µM
SF-539 CNS
  TGI: > 100 µM
SK-MEL-2 melanoma
  TGI: > 100 µM
SK-MEL-28 melanoma
  TGI: > 100 µM
SK-MEL-5 melanoma
  TGI: > 100 µM
SK-OV-3 ovarian
  TGI: > 100 µM
SN12C renal
  TGI: > 100 µM
SNB-19 CNS
  TGI: > 100 µM
SNB-75 CNS
  TGI: > 100 µM
SNB-78 CNS
  TGI: > 100 µM
SR leukemia
  TGI: > 100 µM
SW-620 colon
  TGI: > 100 µM
TK-10 renal
  TGI: > 100 µM
U251 CNS
  TGI: > 100 µM
UACC-257 melanoma
  TGI: > 100 µM
UO-31 renal
  TGI: > 100 µM
XF 498 CNS
  TGI: > 100 µM

## CCN(CC)CC(C)(C)C(=O)/C=C/c1ccc(C)cc1
786-0 renal
  TGI: 23.2 µM
A498 renal
  TGI: 15.5 µM
A549 NSCLC
  TGI: 42.7 µM
ACHN renal
  TGI: 27.9 µM
CAKI-1 renal
  TGI: 29.1 µM
CCRF-CEM leukemia
  TGI: 19.2 µM
DLD-1 colon
  TGI: 32.4 µM
EKVX NSCLC
  TGI: 16.9 µM
HCC-2998 colon
  TGI: 21.6 µM
HCT-116 colon
  TGI: 27.4 µM
HCT-15 colon
  TGI: 14.8 µM
HOP-18 NSCLC
  TGI: 23.6 µM
HOP-62 NSCLC
  TGI: 32.9 µM
HOP-92 NSCLC
  TGI: 8.45 µM
HT29 colon
  TGI: 12.3 µM
K-562 leukemia
  TGI: > 100 µM
KM12 colon
  TGI: 19 µM
KM20L2 colon
  TGI: 13.3 µM
LOX IMVI melanoma
  TGI: 24.1 µM
LXFL 529 NSCLC
  TGI: 20.1 µM
M14 melanoma
  TGI: 25 µM
M19-MEL melanoma
  TGI: 79.6 µM
MALME-3M melanoma
  TGI: 21.7 µM
MOLT-4 leukemia
  TGI: 39.9 µM
NCI-H460 lung
  TGI: 19.4 µM
NCI-H522 lung
  TGI: 8.93 µM
OVCAR-3 ovarian
  TGI: 21.7 µM
OVCAR-4 ovarian
  TGI: 24.4 µM
OVCAR-5 ovarian
  TGI: 27.6 µM
OVCAR-8 ovarian
  TGI: 31.4 µM
RXF 393 renal
  TGI: 21.6 µM
RXF-631 renal
  TGI: 55.7 µM
SF-268 CNS
  TGI: 22.1 µM
SF-295 CNS
  TGI: 26.1 µM
SF-539 CNS
  TGI: 26.2 µM
SK-MEL-2 melanoma
  TGI: 25.7 µM
SK-MEL-28 melanoma
  TGI: 27.8 µM
SK-MEL-5 melanoma
  TGI: 29.1 µM
SK-OV-3 ovarian
  TGI: 60.6 µM
SN12C renal
  TGI: 19.8 µM
SNB-19 CNS
  TGI: 25 µM
SNB-75 CNS
  TGI: 23.5 µM
SNB-78 CNS
  TGI: 26.3 µM
SR leukemia
  TGI: 26.8 µM
SW-620 colon
  TGI: 15.7 µM
TK-10 renal
  TGI: 27.9 µM
U251 CNS
  TGI: 28.6 µM
UACC-62 melanoma
  TGI: 31.8 µM
UO-31 renal
  TGI: 22.2 µM
XF 498 CNS
  TGI: 20.4 µM

## Cc1oc2c(c1C(=O)c1ccccc1)C(=O)c1ccccc1C2=O
786-0 renal
  TGI: 10.6 µM
A498 renal
  TGI: 33.9 µM
A549 NSCLC
  TGI: 40.2 µM
ACHN renal
  TGI: 15.3 µM
BT-549 breast
  TGI: 19.9 µM
CAKI-1 renal
  TGI: 9.12 µM
CCRF-CEM leukemia
  TGI: 5.76 µM
COLO 205 colon
  TGI: 36.5 µM
DLD-1 colon
  TGI: 10 µM
DMS 114 small cell lung
  TGI: 8.03 µM
DMS 273 small cell lung
  TGI: 26.7 µM
DU-145 prostate
  TGI: 24.6 µM
EKVX NSCLC
  TGI: 29.6 µM
HCC-2998 colon
  TGI: 29.1 µM
HCT-116 colon
  TGI: 8.76 µM
HCT-15 colon
  TGI: 18.7 µM
HL-60(TB) leukemia
  TGI: 17.1 µM
HOP-18 NSCLC
  TGI: 30.4 µM
HOP-62 NSCLC
  TGI: 22.4 µM
HOP-92 NSCLC
  TGI: 4.65 µM
HS 578T breast
  TGI: > 100 µM
HT29 colon
  TGI: 39.6 µM
IGROV1 ovarian
  TGI: 15.9 µM
K-562 leukemia
  TGI: 5.89 µM
KM12 colon
  TGI: 18.7 µM
KM20L2 colon
  TGI: 31.9 µM
LOX IMVI melanoma
  TGI: 7.52 µM
LXFL 529 NSCLC
  TGI: 3.1 µM
M14 melanoma
  TGI: 10.1 µM
M19-MEL melanoma
  TGI: 4.93 µM
MALME-3M melanoma
  TGI: 4.53 µM
MCF7 breast
  TGI: 10.6 µM
MDA-MB-231 breast
  TGI: 7.07 µM
MDA-MB-435
  TGI: 2.97 µM
MDA-N
  TGI: 3.9 µM
MOLT-4 leukemia
  TGI: 6.38 µM
NCI-H226 lung
  TGI: 23.3 µM
NCI-H23 lung
  TGI: 8.36 µM
NCI-H460 lung
  TGI: 34.2 µM
NCI-H522 lung
  TGI: 5.86 µM
NCI/ADR-RES ovarian
  TGI: 20.7 µM
OVCAR-3 ovarian
  TGI: 6.22 µM
OVCAR-4 ovarian
  TGI: 9.95 µM
OVCAR-5 ovarian
  TGI: 31.5 µM
OVCAR-8 ovarian
  TGI: 18.6 µM
PC-3 prostate
  TGI: 21.7 µM
RPMI-8226 leukemia
  TGI: 23.8 µM
RXF 393 renal
  TGI: 8.2 µM
RXF-631 renal
  TGI: > 100 µM
SF-268 CNS
  TGI: 32.8 µM
SF-295 CNS
  TGI: 22.1 µM
SF-539 CNS
  TGI: 24.7 µM
SK-MEL-2 melanoma
  TGI: 9.04 µM
SK-MEL-28 melanoma
  TGI: 24.3 µM
SK-MEL-5 melanoma
  TGI: 4.15 µM
SK-OV-3 ovarian
  TGI: 20.7 µM
SN12C renal
  TGI: 25.2 µM
SNB-19 CNS
  TGI: 23.7 µM
SNB-75 CNS
  TGI: 13.6 µM
SNB-78 CNS
  TGI: > 100 µM
SR leukemia
  TGI: > 36.6 µM
SW-620 colon
  TGI: 4.59 µM
T-47D breast
  TGI: 7.04 µM
TK-10 renal
  TGI: 33.2 µM
U251 CNS
  TGI: 21 µM
UACC-257 melanoma
  TGI: 10.5 µM
UACC-62 melanoma
  TGI: 7.72 µM
UO-31 renal
  TGI: 22.4 µM
XF 498 CNS
  TGI: 5.18 µM
